Test results reported in PMC10555500, “Evaluation of the Antiproliferative Properties of CpRu Complexes Containing N-Methylated Triazaphosphaadamantane Derivatives” (Bioinorganic Chemistry and Applications, 2023).

How the values were obtained:
[1] = system: MCF-7 breast cancer cells; experiment: MTT cytotoxicity assay, MCF-7 cells; type: cell-based, human; details: 24 h incubation, average of at least three experiments (±SD)
Description: (§1) The MDA-MB-231 and MCF-7 human breast cancer cells were purchased from ATCC. The MDA-MB-231 and MCF-7 cells were grown in Dulbecco's modified Eagles' medium (DMEM high glucose) (Capricorn Scientific) at 37°C in 5% CO2 supplemented with 10% fetal bovine serum (Capricorn Scientific). HDF cells were purchased from Merck and were grown in the fibroblast growth medium. All cells were adherent in monolayers and, upon confluence, were washed with phosphate buffer saline (PBS) and harvested by digestion with trypsin-EDTA 0.05% (v/v). The cells were suspended and transferred into new, sterile, culture flasks for maintenance or seeded in sterile test microplates for different assays. All cells were manipulated under aseptic conditions in a flow chamber.
The cells were adherent in monolayers and, upon confluence, were harvested by digestion with trypsin. The cytotoxicity of the complexes against the tumour cells was assessed using the colorimetric assay MTT […], which evaluates the metabolic activity of viable cells. This assay measures the conversion of yellow tetrazolium into purple formazan by an active mitochondrial dehydrogenase in living cells. For this purpose, the cells (10–20 × 10^3 in 200 μL of the medium) were seeded into 96-well plates and incubated in a 5% CO2 incubator at 37°C. The cells were settled for 24 h followed by the addition of a dilution series of the complexes in a medium (200 μL). The complexes were first solubilized in 100% DMSO, given a 10 mM stock solution, and then in a medium within the concentration range of 0.1–100 µM. […] The cellular viability was evaluated by measuring the absorbance at 570 nm by using a microplate spectrophotometer. […]
The cells were adherent in monolayers and, upon confluency, were harvested by digestion with trypsin. The cytotoxicity of the complexes against the tumour cells was assessed using the colorimetric assay MTT […], which evaluate the metabolic activity of viable cells. […]

[2] = Stability in DMSO-d6 and DMSO-d6/D2O monitored by 31P{1H} NMR; type: physicochemical
Description: The assessment of the biological properties of the complexes requires their dissolution in a cell culture medium which is mainly constituted by water. When the complex is not hydrosoluble enough, the used protocol contemplates preliminary dissolution in DMSO before the addition to the culture medium. Thus, it is important to determine the stability and behaviour of the complexes in both DMSO and water/DMSO mixtures to check whether different species have been formed when dissolved. Dissolutions in DMSO-d6 and DMSO-d6/D2O of the new complexes 8 and 11 were monitored by ^31P{^1H} NMR over time at room temperature and 37°C. The stability studies of the rest of the complexes (1‐7, 9, 10) were published previously. All experiments were performed by a similar procedure: the complex (0.01 g) was introduced into a 5 mm NMR tube and dissolved in 0.5 mL of degassed solvent (DMSO-d6 and a 1 : 1 mixture of DMSO-d6/D2O). The solution was left at room temperature and monitored by ^31P{^1H} NMR first every 15 minutes, and later in longer periods. Stability was also monitored at incubation cell-based assay temperature (37°C).
All compounds were studied for their stability in 100% DMSO-d6 and DMSO-d6/D2O mixture by using NMR spectroscopy in common aerobic conditions. All experiments were performed by a similar procedure: the complex (0.01 g) was introduced into a 5 mm NMR tube and dissolved in 0.5 mL of degassed solvent (DMSO-d6 and a 1:1 mixture of DMSO-d6/D2O). The solution was left at room temperature and monitored by ^31P{^1H} NMR first every 15 minutes, and later in longer time periods. Stability was also monitored at incubation cell-based assays temperature (37 °C).

[3] = system: MDA-MB-231 breast cancer cells; experiment: MTT cytotoxicity assay, MDA-MB-231 cells; type: cell-based, human; details: 24 h incubation, MTT, average of at least three experiments (±SD)
Description: as §1
(§2) The cells were adherent in monolayers and, upon confluence, were harvested by digestion with trypsin. The cytotoxicity of the complexes against the tumour cells was assessed using the colorimetric assay MTT […], which evaluates the metabolic activity of viable cells. This assay measures the conversion of yellow tetrazolium into purple formazan by an active mitochondrial dehydrogenase in living cells. For this purpose, the cells (10–20 × 10^3 in 200 μL of the medium) were seeded into 96-well plates and incubated in a 5% CO2 incubator at 37°C. The cells were settled for 24 h followed by the addition of a dilution series of the complexes in a medium (200 μL). The complexes were first solubilized in 100% DMSO, given a 10 mM stock solution, and then in a medium within the concentration range of 0.1–100 µM. […] After 24 h of incubation, the treatment solutions were removed by aspiration, and MTT solution (200 μL, 0.5 mg·mL^−1 in PBS) was added to each well. After 3 h at 37°C/5% CO2, the solution was removed, and the purple formazan crystals formed inside the cells were dissolved in DMSO (200 μL) by thorough shaking. The cellular viability was evaluated by measuring the absorbance at 570 nm by using a microplate spectrophotometer. The IC50 values were obtained by dose-response curves using the GraphPad Prism software (vs. 5).
The MDA-MB-231 and MCF-7 human breast cancer cells were purchased from ATCC. MDA-MB-231 and MCF-7 cells were grown in Dulbecco’s modified Eagles’s medium (DMEM high glucose) (Capricorn Scientific) at 37 °C in 5% CO2 supplemented with 10% fetal bovine serum (Capricorn Scientific). All cells were adherent in monolayers and, upon confluence, were washed with phosphate buffer saline (PBS) and harvested by digestion with Trypsin-EDTA 0.05% (v/v). The cells were suspended and transferred into new, sterile, culture flasks, for maintenance or seeded in sterile test microplates for different assays. All cells were manipulated under aseptic conditions in a flow chamber.
The cells were adherent in monolayers and, upon confluency, were harvested by digestion with trypsin. The cytotoxicity of the complexes against the tumour cells was assessed using the colorimetric assay MTT […], which evaluate the metabolic activity of viable cells. This assay measures the conversion of the yellow tetrazolium into purple formazan by an active mitochondrial dehydrogenase in living cells. For this purpose, cells (10-20 × 10^3 in 200 μL of medium) were seeded into 96-well plates and incubated in a 5% CO2 incubator at 37 °C. The cells were settled for 24 h followed by the addition of a dilution series of the complexes in medium (200 μL). The complexes were first solubilized in 100% DMSO, given a 10 mM stock solution, and then in medium within the concentration range of 0.1–100 µM. […] After 24 h of incubation, the treatment solutions were removed by aspiration, and MTT solution (200 μL, 0.5 mg·mL^-1 in PBS) was added to each well. After 3 h at 37 °C/5% CO2, the solution was removed, and the purple formazan crystals formed inside the cells were dissolved in DMSO (200 μL) by thorough shaking. […]

[4] = system: normal human fibroblasts (HDF); experiment: MTT cytotoxicity assay, normal human dermal fibroblasts; type: cell-based
Description: as §1, §2

CN1CN2CN(C)C[P]([Ru+2]([P](c3ccccc3)(c3ccccc3)c3ccccc3)[P](c3ccccc3)(c3ccccc3)c3ccccc3)(C1)C2.O=S(=O)([O-])C(F)(F)F.[Cl][Pd][Cl].c1cc[cH-]c1 [Compound 11, [RuCp(PPh3)2-µ-dmoPTA-1κP-2κ^2N,N′-PdCl2](CF3SO3)]
IC50 [1]: 730 ± 110 nM | Fraction converted to complex 8 (solvolysis) in DMSO ([2]; DMSO-d6, visible after 4 h, constant up to 48 h): < 7% | Stability in DMSO-d6 ([2]; room temperature and 37°C, 48 h, 31P{1H} NMR): very stable | IC50 [3]: 1100 ± 200 nM | IC50 ([4]; 24 h incubation, MTT, normal human fibroblasts): 1590 ± 450 nM | Fold less cytotoxic for fibroblasts (HDF) than for MCF-7 cells ([4]; selectivity HDF vs MCF-7): 2-3 fold | Fold less cytotoxic for fibroblasts (HDF) than for MDA-MB-231 cells ([4]; selectivity HDF vs MDA-MB-231): 1.5 fold
